One data set relates to MDCK-MDR1 cells. Conditions: 5 μM.
Data set [1] concerns the target T1, panel of 393 kinases (Homo sapiens, UniProt Q9BQI3).
T1 construct: purchased Reaction Biology Corporation
Kind of data set: biochemical.

The target of data set [2] is T2, panel of 393 kinases (Homo sapiens, UniProt Q15118).
T2 construct: purchased Reaction Biology Corporation
Kind of data set: biochemical. Conditions: kinase PDK1/PDHK1; control compound.

Data set [3] deals with T3, panel of 393 kinases (Homo sapiens, UniProt Q15120).
T3 construct: purchased Reaction Biology Corporation
Kind of data set: biochemical. Conditions: kinase PDK3/PDHK3; control compound.

For data set [4], the target named is T4, panel of 393 kinases (Homo sapiens, UniProt Q16654).
T4 construct: purchased Reaction Biology Corporation
Nature of the data set: biochemical. Conditions: kinase PDK4/PDHK4; control compound.

Data set [5] has as its target T5, panel of 393 kinases (Homo sapiens, UniProt Q15119).
T5 construct: purchased Reaction Biology Corporation
Nature of the data set: biochemical. Conditions: kinase PDK2/PDHK2; control compound.

Data set [6] deals with T6, panel of 393 kinases (Homo sapiens, UniProt Q96QT4).
T6 construct: purchased Reaction Biology Corporation
Nature of the data set: biochemical. Conditions: kinase TRPM7/CHAK1; control compound.

Data set [7] can be described thus: Parallel artificial membrane permeability assay (PAMPA). Format: in vitro ADME.
The next data set relates to HaCat cells. Kind of data set: Cytotoxicity/viability, confluent HaCat cells. Format: cell-based, human. Conditions: 10 μM. The method, then: Results are presented as mean±SEM odu as a percentage of the DMSO control (n=2 independent experiments each conducted in duplicate for C and 1 experiment conducted in duplicate for D). Results in B-D were compared by ANOVA, *p<0.05, **p<0.01, ***p<0.001, ****p<0.0001).
Cell proliferation and viability were determined using the Cell Titer 96® Aqueous One Solution and optical density was determined using a SpectraMax® M5e Molecular Devices multidetection microplate reader. […] The cells were then fixed and stained for activated caspases (red) and SYTOX Green (for integrity of plasma membrane) by Image-iT™ LIVE red Poly Caspase Detection kit. Nuclei were stained with Hoechst. Images were acquired by laser confocal microscope ZeissLive/DuoScan equipped with oil immersion objectives 63×1.1 and captured in an optical slice of 0.37 μm with appropriate filters. Alternatively, immunoblots were prepared and probed with antibodies to cleaved PARP-1 or cleaved caspase 8.

The subject of data set [8] is PLSCR1. It counts as cell-based, monkey. Conditions: Vero, 30 minutes; drugs 10 μM each.
In data set [9] the test system is PLSCR1. Kind of data set: PLSCR1 phosphorylation after HSV-2 (immunoprecipitation/Western). It counts as cell-based, human. Conditions: 10 μM, HaCat, 30 minutes.
For data set [10], the system named is phosphatidylserine (PtdS) and Akt. Kind of data set: Translocation of PtdS and Akt to the outer leaflet after HSV-2 (confocal, non-permeabilized). Conditions: HaCat, HSV-2(G). Format: cell-based, human.
Data set [11] concerns VSV-S (VSV pseudotyped with SARS-CoV-2 spike protein). It counts as cell-based.
Another data set relates to HSV-1 K26GFP. Nature of the data set: HSV capsid entry, GFP+ cells by confocal imaging. Conditions: HaCat, 4 h post-temperature shift; CIMSS 10 μM, anti-Akt 2 μg/ml, cycloheximide 10 μg/ml.
The target in data set [12] is T7, panel of 393 kinases (Homo sapiens, UniProt Q13131).
T7 construct: purchased Reaction Biology Corporation
Nature of the data set: biochemical. Conditions: control compound.

Data set [13] concerns the target T8, panel of 393 kinases (Homo sapiens, UniProt P54646).
T8 construct: purchased Reaction Biology Corporation
Kind of data set: biochemical. Conditions: control compound.

Structures can show the parent of a compound that is named as a salt.

T8 sequence (P54646 whole entry): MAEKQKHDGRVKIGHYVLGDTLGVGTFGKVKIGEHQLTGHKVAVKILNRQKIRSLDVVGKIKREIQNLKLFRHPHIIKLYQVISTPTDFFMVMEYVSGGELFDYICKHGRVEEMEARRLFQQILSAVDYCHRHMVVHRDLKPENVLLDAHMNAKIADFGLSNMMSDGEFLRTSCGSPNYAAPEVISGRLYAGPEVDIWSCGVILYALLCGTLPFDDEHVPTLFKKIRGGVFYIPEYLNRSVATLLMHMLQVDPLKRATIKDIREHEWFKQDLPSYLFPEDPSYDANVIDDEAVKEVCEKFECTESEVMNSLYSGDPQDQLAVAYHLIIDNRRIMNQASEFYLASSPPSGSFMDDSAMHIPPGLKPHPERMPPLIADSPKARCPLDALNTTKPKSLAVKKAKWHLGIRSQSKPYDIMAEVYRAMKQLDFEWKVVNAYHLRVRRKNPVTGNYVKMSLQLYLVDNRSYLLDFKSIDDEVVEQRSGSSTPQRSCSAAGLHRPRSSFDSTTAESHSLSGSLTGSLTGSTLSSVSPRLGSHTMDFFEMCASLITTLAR
T7 sequence (Q13131 whole entry): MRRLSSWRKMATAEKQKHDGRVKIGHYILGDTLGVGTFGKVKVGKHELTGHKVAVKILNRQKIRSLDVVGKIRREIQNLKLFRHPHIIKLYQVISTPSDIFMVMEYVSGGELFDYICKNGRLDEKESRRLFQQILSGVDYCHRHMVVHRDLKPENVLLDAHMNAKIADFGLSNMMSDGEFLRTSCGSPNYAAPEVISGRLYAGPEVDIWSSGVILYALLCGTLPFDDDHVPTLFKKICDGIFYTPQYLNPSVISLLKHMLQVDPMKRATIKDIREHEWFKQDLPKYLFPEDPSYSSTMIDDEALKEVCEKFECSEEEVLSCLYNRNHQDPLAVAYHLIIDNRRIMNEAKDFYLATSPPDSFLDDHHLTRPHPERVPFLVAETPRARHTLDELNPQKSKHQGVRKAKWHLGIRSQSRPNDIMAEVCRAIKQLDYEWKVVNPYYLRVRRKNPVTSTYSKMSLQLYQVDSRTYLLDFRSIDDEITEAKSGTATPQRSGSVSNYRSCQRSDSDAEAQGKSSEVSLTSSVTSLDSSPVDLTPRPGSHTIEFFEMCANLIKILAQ
T3 sequence (Q15120 whole entry): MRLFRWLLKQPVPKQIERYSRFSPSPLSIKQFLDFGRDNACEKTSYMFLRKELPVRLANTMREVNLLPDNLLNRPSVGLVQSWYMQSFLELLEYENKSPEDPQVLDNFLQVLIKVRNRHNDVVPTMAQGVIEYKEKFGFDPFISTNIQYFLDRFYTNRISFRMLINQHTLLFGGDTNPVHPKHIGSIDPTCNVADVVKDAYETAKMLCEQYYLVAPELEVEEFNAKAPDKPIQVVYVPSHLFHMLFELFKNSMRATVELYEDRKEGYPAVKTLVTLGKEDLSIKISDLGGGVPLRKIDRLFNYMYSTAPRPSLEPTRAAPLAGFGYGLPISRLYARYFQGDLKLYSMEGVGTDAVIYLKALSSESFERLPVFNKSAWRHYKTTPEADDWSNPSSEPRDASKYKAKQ
T2 sequence (Q15118 29-436): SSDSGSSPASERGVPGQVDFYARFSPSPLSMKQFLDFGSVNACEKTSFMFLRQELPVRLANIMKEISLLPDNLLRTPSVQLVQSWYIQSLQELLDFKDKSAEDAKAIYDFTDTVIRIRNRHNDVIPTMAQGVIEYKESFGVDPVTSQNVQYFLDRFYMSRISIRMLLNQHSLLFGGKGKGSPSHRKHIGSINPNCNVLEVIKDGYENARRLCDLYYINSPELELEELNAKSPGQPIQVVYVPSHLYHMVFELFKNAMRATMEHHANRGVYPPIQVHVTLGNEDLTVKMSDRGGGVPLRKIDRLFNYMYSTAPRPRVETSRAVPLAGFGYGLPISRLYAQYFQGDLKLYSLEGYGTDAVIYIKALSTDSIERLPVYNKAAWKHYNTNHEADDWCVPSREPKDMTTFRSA
T4 sequence (Q16654 whole entry): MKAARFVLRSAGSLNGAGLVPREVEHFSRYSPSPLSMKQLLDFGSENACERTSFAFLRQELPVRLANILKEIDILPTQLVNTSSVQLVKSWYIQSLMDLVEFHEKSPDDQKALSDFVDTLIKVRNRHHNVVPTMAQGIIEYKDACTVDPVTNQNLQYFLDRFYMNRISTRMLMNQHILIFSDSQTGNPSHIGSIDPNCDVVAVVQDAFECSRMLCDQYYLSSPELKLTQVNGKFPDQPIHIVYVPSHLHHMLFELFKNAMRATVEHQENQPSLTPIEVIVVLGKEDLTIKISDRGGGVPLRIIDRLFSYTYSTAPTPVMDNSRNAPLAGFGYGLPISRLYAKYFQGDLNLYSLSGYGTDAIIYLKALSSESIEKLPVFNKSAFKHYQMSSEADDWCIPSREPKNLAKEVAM
T1 sequence (Q9BQI3 whole entry): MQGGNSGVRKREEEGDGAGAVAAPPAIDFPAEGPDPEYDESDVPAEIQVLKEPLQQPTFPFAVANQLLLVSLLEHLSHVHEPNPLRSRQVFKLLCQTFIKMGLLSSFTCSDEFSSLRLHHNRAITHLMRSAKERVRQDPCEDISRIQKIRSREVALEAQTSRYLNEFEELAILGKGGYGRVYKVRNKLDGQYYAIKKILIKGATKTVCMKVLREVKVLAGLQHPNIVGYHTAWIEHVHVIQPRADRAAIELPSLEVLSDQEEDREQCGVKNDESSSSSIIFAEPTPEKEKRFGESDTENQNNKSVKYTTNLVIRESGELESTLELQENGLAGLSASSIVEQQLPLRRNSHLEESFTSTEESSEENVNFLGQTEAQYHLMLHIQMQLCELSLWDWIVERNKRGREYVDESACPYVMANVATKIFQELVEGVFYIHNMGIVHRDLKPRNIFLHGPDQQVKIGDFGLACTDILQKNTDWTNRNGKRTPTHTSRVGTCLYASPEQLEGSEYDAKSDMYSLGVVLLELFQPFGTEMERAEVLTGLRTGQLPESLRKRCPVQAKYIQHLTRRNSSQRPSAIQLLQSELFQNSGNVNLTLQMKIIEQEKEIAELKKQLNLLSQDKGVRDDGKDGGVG
T6 sequence (Q96QT4 whole entry): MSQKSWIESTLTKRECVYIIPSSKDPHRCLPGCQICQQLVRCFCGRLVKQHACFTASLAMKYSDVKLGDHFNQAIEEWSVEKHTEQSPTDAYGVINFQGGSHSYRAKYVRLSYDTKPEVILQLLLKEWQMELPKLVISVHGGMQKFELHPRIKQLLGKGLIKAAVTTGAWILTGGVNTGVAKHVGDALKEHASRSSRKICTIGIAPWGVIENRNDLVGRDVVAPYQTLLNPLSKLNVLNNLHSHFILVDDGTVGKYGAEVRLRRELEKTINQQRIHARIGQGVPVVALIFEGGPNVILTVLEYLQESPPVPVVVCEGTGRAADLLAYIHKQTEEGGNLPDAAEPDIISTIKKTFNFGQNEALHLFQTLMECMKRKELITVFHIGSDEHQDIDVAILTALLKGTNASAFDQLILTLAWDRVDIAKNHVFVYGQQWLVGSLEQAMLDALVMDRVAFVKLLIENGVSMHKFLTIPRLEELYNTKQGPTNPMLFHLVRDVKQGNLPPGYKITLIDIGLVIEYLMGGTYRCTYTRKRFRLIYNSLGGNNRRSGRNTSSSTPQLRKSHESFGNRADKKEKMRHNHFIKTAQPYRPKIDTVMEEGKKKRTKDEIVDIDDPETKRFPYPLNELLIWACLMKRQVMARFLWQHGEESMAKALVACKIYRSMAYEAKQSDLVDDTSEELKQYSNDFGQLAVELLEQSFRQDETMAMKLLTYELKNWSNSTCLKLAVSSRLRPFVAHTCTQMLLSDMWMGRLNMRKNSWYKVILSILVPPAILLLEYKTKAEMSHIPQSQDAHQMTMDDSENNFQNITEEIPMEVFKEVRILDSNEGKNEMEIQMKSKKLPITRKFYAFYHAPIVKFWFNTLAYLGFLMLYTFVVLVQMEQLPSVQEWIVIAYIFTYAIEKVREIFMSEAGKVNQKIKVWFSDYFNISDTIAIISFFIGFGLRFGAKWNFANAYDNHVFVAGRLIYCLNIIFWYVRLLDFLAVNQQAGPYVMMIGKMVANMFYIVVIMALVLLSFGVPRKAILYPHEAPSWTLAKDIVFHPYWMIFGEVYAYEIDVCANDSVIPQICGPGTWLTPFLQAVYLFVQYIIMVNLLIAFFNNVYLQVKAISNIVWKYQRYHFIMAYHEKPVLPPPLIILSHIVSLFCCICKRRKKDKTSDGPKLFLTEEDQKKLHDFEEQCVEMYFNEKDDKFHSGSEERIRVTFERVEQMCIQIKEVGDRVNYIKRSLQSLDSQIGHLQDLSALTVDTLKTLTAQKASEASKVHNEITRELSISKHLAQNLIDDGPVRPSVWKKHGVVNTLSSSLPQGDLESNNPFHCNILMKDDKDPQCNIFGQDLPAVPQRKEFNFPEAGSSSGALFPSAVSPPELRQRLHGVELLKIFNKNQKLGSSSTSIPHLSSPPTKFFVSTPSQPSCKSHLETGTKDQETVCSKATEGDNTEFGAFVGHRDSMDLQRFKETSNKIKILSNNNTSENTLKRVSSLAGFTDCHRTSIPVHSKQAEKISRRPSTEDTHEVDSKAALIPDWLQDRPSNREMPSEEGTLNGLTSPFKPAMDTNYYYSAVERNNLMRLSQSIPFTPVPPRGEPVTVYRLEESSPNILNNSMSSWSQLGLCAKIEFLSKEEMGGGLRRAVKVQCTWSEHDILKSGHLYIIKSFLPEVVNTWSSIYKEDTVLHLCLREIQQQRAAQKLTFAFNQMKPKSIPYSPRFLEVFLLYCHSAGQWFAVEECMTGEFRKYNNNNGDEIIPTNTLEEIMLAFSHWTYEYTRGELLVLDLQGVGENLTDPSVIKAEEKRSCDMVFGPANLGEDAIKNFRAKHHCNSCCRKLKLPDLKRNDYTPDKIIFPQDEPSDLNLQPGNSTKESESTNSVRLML

In the case of `C[C@H]1O[C@@H](O[C@H]2[C@@H](O)C[C@H](O[C@H]3[C@@H](O)C[C@H](O[C@H]4CC[C@@]5(C)[C@H](CC[C@@H]6[C@@H]5C[C@@H](O)[C@]5(C)[C@@H](C7=CC(=O)OC7)CC[C@]65O)C4)O[C@@H]3C)O[C@@H]2C)C[C@H](O)[C@@H]1O` [Digoxin], in the data set with MDCK-MDR1 cells, the “Recover %, MDCK Transport” value was 96%.

In general, IC50 refers to the concentration at which inhibition is half-maximal. In turn, `Cn1cc(-c2ccc3c(c2)CCN3C(=O)Cc2cccc(C(F)(F)F)c2)c2c(N)ncnc21` [GSK-2606414] gave an IC50 against panel of 393 kinases [1] of 96.2 nM.

For the compound `O=C1Nc2ccc(I)cc2/C1=C/c1cc(Br)c(O)c(Br)c1` [GW5074], the IC50 is 8630 nM against panel of 393 kinases [2], 2570 nM at panel of 393 kinases [3], 1890 nM on panel of 393 kinases [4] and 5050 nM on panel of 393 kinases [5].

With `CCCCCCCCCCCCCCCCn1cc[n+](Cc2ccccc2)c1C` [NH125], on panel of 393 kinases [6], inhibition was half-maximal at 23400 nM (IC50).

For `CC(C)NCC(O)COc1cccc2ccccc12` (stereo not drawn) [Propranolol], the “Recover %, PAMPA” value in data set [7] (100 μM) was 85%. Also, in data set [7] (100 μM in PBS pH 7.4, 5 hours, room temperature), the “Papp, PAMPA” value turned out to be 8.991 ×10⁻⁶ cm/s. Further, the “Recover %, MDCK Transport” value in the data set with MDCK-MDR1 cells is 93%.

As for `CN[C@@H]1C[C@H]2O[C@@](C)([C@@H]1OC)n1c3ccccc3c3c4c(c5c6ccccc6n2c5c31)C(=O)NC4` [Staurosporine, (9S,10R,11R,13R)-2,3,10,11,12,13-hexahydro-10-methoxy-9-methyl-11-(methylamino)-9,13-epoxy-1H,9H-diindolo[1,2,3-gh:3′,2′,1′-lm]pyrrolo[3,4-j][1,7]benzodiazonin-1-one, reference compound], the cytotoxicity entry in the data set on HaCat cells (confluent HaCat, 72 and 120 hours of exposure) is “completely cytotoxic”; in the data set with HaCat cells (fully confluent HaCat cells, up to 120 h) it was “cytotoxic within 24 h”. Moreover, the “phosphorylation of PLSCR1 after VSV-S” value in the data set with PLSCR1 [8] was “inhibited”. Moreover, the “phosphorylation of PLSCR1 after HSV-2” value in the data set on PLSCR1 [9] was “inhibited”. In data set [10] (10 μM), the “translocation of PtdS and Akt to the outer leaflet of the plasma membrane” value is “inhibited”.

For the compound `CN(C)C(=O)COC(=O)Cc1ccc(OC(=O)c2ccc(NC(=N)N)cc2)cc1` [camostat mesylate, reference compound], the “VSV-S infection (plaques or viral yields)” value in data set [11] is “inhibited”.

As to `C[C@@H]1C[C@@H]([C@H](O)CC2CC(=O)NC(=O)C2)C(=O)[C@@H](C)C1` [cycloheximide, reference compound], in the data set on HSV-1 K26GFP, the “percentage of GFP+ cells” value is “significantly reduced”.

Take Apyrase: in data set [10] (10 U/ml), the “detection of PtdS or PLSCR1 at the outer leaflet” value is given as “no discernible effect”.

For the compound Ro-31-8220, the 50% inhibitory concentration (IC50) came out at 66.8 nM against panel of 393 kinases [12] (kinase AMPK(A1/B1/G1)); 76.8 nM against panel of 393 kinases [12] (kinase AMPK(A1/B1/G2)); 179 nM against panel of 393 kinases [12] (kinase AMPK(A1/B1/G3)); 116 nM against panel of 393 kinases [12] (kinase AMPK(A1/B2/G1)); 296 nM against panel of 393 kinases [13] (kinase AMPK (A2/B1/G3)); 212 nM against panel of 393 kinases [13] (kinase AMPK(A2/B1/G1)). Further, the figures for the IC50 at panel of 393 kinases [13] (kinase AMPK(A2/B2/G1)), at panel of 393 kinases [13] (kinase AMPK(A2/B2/G2)) and against panel of 393 kinases [13] (kinase AMPK(A2/B2/G3)) were 97.8 nM, 100 nM and 186 nM, respectively.

The values above are taken from patent US20250025473A1 (priority 2021, published 2025).
